ChEMBL document CHEMBL1201862, “PubChem BioAssay data set” (2004)
The source made the active and inactive calls.

Columns and labels:
Caspase-3 = biological target: T1, Caspase-3 (Homo sapiens, UniProt P42574); type: functional;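 note: Dose-response selectivity test against caspase-3 for candidate inhibitors of sentrin-specific proteases (SENPs)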
T1 sequence (P42574 whole entry): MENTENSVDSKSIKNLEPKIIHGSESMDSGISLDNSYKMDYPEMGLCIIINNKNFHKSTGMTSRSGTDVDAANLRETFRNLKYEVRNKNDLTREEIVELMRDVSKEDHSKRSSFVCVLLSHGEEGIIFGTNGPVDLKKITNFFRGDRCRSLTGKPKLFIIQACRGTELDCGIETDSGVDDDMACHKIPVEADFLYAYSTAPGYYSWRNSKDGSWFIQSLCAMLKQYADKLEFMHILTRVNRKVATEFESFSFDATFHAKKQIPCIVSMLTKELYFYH

[1] = biological target: T2, Sentrin-specific protease 8 (Homo sapiens, UniProt Q96LD8); type: functional;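 note: luminescence read-out of SENP8 inhibition, dose-response confirmation following an ultra-high-throughput screen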
T2 sequence (Q96LD8 whole entry): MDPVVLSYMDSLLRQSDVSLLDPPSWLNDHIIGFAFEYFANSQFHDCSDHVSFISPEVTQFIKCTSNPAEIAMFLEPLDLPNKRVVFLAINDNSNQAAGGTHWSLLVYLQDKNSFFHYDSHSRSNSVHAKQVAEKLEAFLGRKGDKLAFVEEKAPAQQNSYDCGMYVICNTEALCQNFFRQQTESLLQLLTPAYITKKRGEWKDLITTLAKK

[2] = biological target: T3, Replicative DNA helicase DnaB (Mycobacterium tuberculosis, UniProt P9WMR3); assay: DnaB intein splicing inhibitors, dose response, biochemical, cell-free fluorescence (AID 449749); type: functional
T3 sequence (P9WMR3 whole entry): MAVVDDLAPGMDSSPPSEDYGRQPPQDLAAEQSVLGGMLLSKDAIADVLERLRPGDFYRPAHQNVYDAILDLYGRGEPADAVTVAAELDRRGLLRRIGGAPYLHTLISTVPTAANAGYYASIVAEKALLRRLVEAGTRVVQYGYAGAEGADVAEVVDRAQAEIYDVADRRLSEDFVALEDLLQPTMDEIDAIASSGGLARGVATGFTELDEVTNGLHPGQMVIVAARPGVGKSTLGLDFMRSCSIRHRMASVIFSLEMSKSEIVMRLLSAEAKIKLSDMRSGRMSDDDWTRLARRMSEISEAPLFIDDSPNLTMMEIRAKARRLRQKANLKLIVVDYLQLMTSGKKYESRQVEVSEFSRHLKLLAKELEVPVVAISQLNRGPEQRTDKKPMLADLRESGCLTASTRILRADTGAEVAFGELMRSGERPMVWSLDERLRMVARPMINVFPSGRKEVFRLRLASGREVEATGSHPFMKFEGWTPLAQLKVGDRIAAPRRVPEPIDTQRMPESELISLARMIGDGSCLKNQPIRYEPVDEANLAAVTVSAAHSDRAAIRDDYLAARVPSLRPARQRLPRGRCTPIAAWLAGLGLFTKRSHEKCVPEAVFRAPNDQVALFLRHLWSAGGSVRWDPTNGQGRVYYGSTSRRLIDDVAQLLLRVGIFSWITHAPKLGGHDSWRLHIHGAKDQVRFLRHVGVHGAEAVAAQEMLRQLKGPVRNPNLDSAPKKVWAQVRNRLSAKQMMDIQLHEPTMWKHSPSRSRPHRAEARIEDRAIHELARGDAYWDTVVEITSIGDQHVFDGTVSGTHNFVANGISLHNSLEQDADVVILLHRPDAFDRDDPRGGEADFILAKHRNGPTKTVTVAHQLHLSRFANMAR

[3] = Luminescence-based cell-based high throughput dose response assay to identify activators of the DAF-12 from the parasite S. stercoralis (ssDAF-12).; type: functional
[4] = biological target: Cystic fibrosis transmembrane conductance regulator/Golgi-associated PDZ and coiled-coil motif-containing protein (Homo sapiens, UniProt P13569+Q9HD26); assay: potency against CAL PDZ-peptide interaction – biochemical, fluorescence polarization, Cerulean-tagged CAL PDZ, cherry-picks, dose response (AID 504773)
Cystic fibrosis transmembrane conductance regulator/Golgi-associated PDZ and coiled-coil motif-containing protein, sequence (P13569 whole entry, other chains not shown): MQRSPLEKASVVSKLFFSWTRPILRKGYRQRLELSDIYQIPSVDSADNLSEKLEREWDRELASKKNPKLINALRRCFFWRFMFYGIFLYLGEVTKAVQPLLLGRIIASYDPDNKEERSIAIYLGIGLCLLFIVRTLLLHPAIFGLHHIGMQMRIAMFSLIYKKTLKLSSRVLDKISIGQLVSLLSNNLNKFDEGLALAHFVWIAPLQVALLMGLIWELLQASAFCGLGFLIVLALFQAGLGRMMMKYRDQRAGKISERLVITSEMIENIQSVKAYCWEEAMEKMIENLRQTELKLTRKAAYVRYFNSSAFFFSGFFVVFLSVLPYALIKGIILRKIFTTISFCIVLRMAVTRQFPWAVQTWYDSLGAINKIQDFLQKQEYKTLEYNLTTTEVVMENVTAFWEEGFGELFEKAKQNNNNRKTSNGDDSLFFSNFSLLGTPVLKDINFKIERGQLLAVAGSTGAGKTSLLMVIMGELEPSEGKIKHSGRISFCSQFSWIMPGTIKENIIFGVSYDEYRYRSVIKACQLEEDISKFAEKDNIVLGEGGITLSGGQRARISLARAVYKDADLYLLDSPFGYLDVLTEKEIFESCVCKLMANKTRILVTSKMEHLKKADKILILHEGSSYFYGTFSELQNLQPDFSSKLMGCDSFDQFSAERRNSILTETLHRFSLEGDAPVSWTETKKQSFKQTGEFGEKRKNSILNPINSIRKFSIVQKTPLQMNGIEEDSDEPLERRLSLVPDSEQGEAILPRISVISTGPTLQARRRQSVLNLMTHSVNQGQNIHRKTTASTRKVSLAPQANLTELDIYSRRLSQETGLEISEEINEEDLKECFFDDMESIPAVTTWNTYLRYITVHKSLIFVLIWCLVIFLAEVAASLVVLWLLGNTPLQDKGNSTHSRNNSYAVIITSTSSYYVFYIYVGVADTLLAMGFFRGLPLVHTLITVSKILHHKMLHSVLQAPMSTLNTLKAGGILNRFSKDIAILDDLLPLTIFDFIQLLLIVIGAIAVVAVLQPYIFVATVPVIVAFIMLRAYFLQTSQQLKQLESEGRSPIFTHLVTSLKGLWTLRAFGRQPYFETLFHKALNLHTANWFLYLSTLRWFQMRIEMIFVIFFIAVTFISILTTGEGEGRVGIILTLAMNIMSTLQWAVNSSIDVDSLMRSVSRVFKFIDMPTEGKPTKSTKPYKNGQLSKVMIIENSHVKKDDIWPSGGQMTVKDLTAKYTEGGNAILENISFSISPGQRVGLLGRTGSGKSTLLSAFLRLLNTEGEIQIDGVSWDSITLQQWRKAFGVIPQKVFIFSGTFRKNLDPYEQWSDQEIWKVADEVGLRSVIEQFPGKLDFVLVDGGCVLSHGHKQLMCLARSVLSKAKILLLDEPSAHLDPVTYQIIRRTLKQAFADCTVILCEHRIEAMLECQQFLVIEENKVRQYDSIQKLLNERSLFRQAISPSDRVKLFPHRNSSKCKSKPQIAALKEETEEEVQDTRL

[5] = biological target: T4, Heat shock factor protein 1 (Mus musculus, UniProt P38532); assay: decrease of HSF1-responsive luciferase luminescence – cell-based, NIH3T3, dose retest, confirmation (AID 2382); type: functional;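 note: NIH3T3 fibroblasts with HSF1-driven luciferase reporter stressed by proteasome inhibitor MG132; luminescence from HSF1-driven luciferase expression after 8 hours of MG132 stress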
T4 sequence (P38532 whole entry): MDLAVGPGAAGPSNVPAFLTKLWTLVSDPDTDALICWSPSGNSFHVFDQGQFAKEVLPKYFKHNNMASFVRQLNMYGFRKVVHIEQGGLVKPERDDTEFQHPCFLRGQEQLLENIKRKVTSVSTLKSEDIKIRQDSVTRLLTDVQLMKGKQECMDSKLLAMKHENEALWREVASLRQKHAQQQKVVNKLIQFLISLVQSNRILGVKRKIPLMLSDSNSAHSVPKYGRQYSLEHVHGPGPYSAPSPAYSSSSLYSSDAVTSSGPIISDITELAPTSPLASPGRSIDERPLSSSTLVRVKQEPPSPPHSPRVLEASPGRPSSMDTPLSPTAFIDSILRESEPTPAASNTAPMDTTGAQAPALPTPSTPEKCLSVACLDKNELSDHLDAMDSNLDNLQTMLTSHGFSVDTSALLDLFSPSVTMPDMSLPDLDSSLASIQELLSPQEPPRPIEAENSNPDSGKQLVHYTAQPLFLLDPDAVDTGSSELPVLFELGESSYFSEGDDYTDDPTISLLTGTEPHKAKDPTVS

BJ = assay: growth inhibition of engineered Ras-driven BJ cells – cell-based, alamar blue fluorescence, cherrypicked samples, dose response (AID 2631); type: functional; conditions: Homo sapiens;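 note: confirmatory dose-response assay in RAS-dependent BJ fibroblasts engineered with TERT, LT and ST, with cytotoxicity read by fluorescence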

| Structure (SMILES) | IC50 (Caspase-3) | IC50 [1] | AC50 [2] | IC50 [3] | AC50 [4] | EC50 [5] | EC50 (BJ) |
| --- | --- | --- | --- | --- | --- | --- | --- |
| COc1ccccc1N1C(=O)Cc2ccccc2C1=O | 4.61 µM (active) | 49.4 µM (active) | > 380 µM (inactive) |  |  |  |  |
| Oc1ccccc1/C=C/c1noc(-c2ccccc2O)n1 | 39.7 µM (active) | > 100 µM (inactive) |  | > 67.6 µM (inactive) |  |  |  |
| O=C(O)CSc1cc(NS(=O)(=O)c2ccc(Cl)cc2)c2ccccc2c1O |  |  | 2.91 µM (active) |  | 30 µM (active) |  |  |
| Cc1cccc(N=Nc2ccc(N(C)C)cc2)c1 | 5.57 µM (active) | 3.74 µM (active) |  |  |  |  |  |
| Cc1nn(-c2ccccc2)c(Cl)c1CN(C(=O)CCl)c1ccc(Cl)cc1 |  |  | 1.52 µM (active) |  |  | 1.57 µM (active) | 515 nM (active) |
